Results reported in US20260234553A1, “COMPOSITIONS COMPRISING SUPRAMOLECULAR ASSEMBLIES OF PEPTIDE AMPHIPHILES AND ORGANIC CATIONS AND METHODS OF USE THEREOF” (Northwestern University, priority 2023, published 2026).
Where “and” joins values, the source holds several entries; their conditions need not be identical. Equal entries are not always repeated. *: point of attachment. Palmitoyl = CCCCCCCCCCCCCCCC(=O)*

How the values were obtained:
PA nanostructures = assay: 1H DOSY NMR of OC free and with PA; type: binding
Method: Binding of organic cations (OCs) to PA. Initial screening of interactions of five different OCs with PA was performed using ^1H NMR spectroscopy in solution (FIG. 53). Here, ^1H signals lineshape from the ^1H NMR spectra of OCs were compared and analyzed against the corresponding ^1H signals from OC-PA samples. It is expected that ^1H signals will experience broadening if binding is occurring. In all cases we observed significant broadening except for tetramethylammonium (OC4), indicating its poor binding to PA nanostructures. ^1H DOSY NMR measurements. Spectra were measured by monitoring the change in intensity of the corresponding resonances as a function of the field gradient strength g (G/cm). A 2D sequence was used for diffusion measurement based on stimulated echo and LED which applies bipolar gradient pulses for diffusion (2 spoil gradients) together with water presaturation during relaxation delay (ledbpgppr2s Bruker sequence). ^1H DOSY data were first processed in Topspin (Fourier transformation, phasing, and baseline correction) and then the peak intensities of the corresponding resonances were extracted and fitted to the Stejskal-Tanner equation (Eq. 1) to give the value of diffusion coefficient D (m^2/s). Solution ^1H DOSY NMR data were fit to Eq. 1 using NMRTools.jl{, #28110}. ^1H HRMAS DOSY NMR data were fit using the Eq. 1 using Dynamics Center 2.6.3 software.
In the Eq. 1, I and I0 are the signal intensities in the presence and absence of gradient pulses, respectively; γ is the gyromagnetic ratio; g and δ are the gradient strength and their duration, respectively; σ=0.9, is the shape factor for the SMSQ gradient used in the experiment; Δ is the time separation between the edges of the gradient pulses.

[1] = Anomalous small angle X-ray scattering (ASAXS) of Rb+ around PA and OC-PA; type: physicochemical
Description: An anomalous small angle X-ray scattering (ASAXS) was used to deduce the spatial distribution of Rb^+ surrounding charged, twisted peptide amphiphile (PA) bilayer. ASAXS relies on the measurements of the subtle changes in the X-ray energy-dependent scattered intensity profiles from the combined counterion (here, Rb^+)-supramolecular assembly system. These changes arise due to strong dispersion corrections [f′(E), f″(E)] to the form factor (scattering/absorption power) of an atom or an ion when the X-ray energy E is close to the binding energy of a core-shell electron in the atom or the ion [(here, Rb^+ K-edge EK=15.2 keV.
Scattered intensity profiles were measured from 1 mM PA in solutions containing either 66 mM RbCl or 50 mM RbCl and 16 mM OC—Cl at 4 X-ray energies below the Rb^+ K edge (Table 8). The non-resonant
The block height h=1 nm is empirically selected for two reasons. First, no artifacts are introduced by this artificial construct in the simulated scattered intensities over the relevant ASAXS q range of 0.05-2 nm^−1 (FIG. 42). Second, this choice keeps the simulations relatively fast. The distribution of Rb^+ is assumed to follow the shape of each parallelepiped block (FIG. 43C), and consists of the condensed Rb^+ layer, which is associated with the 2 ionizable amino acid groups in the outer periphery of the PA bilayer, followed by 12 layers with exponentially decaying Rb^+ concentration. The total number of Rb^+ associated is equal to the parallelepiped charge, which is calculated based on estimates of the area/molecule/leaflet (At=0.5 nm^2) from molecular dynamics (MD) simulations and a fit parameter for the fraction of amino acids that are in the ionized state (a). Based on this model the orientationally averaged non-resonant intensity and the cross-term are calculated and compared to the data in FIG. 42. […]
The SAXS profiles in FIG. 42 were analyzed using the discretized model in FIG. 43. […] The best-fit was then selected based on manual calculations of the differences between the measured and simulated profiles. […]

CA1 pyramidal neurons = assay: Whole-cell current clamp recordings in organotypic hippocampal slice cultures on PA or ICN layers; type: cell-based, rat; design: Rheobase: unit not given beside the values
Method: To physiologically dissect the unique responses activated by Na^+-ICN vs. K^+-ICN, we explored the effect of ICNs on the stability of the hippocampal network. This well-established ex vivo model allows for the ability to reliably acquire electrophysiological data using organotypic hippocampal slice cultures from neonatal rats. A PA or ICN layer was prepared on top of Millicell® cell culture inserts, inserted hippocampal organotypic slices (including the entorhinal cortex), and measured multiple electrophysiological parameters from CA1 pyramidal neurons at 6, 10, and 14 DIV using whole-cell current clamp recordings (FIG. 5A). Given the known heterogeneity of the hippocampus, the CA1 pyramidal neuron excitability was measured in the dorsal area.
All experiments were carried out according to the European and institutional guidelines for the care and use of laboratory animals (Council Directive 86/609/EEC and French National Research Council) and approved by the local health authority (Préfecture des Bouches-du-Rhône, Marseille). Young wild type Wistar rats (P5-P10), of either sex, were used to prepare organotypic hippocampal slice cultures. Animals were deeply anesthetized with isoflurane (5%) and killed by decapitation. The brain was removed and both hippocampi were individually dissected. Hippocampal slices (300 μm) were cut using a Vibratome (Leica, VT1200S, Wetzlar, Germany) in a sucrose based cutting solution kept at 3-4° C. containing for 1L: ultrapure water (988.5 mL), sucrose (97 g), NaHCO3 (2.18 g), D-glucose (1.8 g), KCl (0.1 g), CaCl2 1M (1 mL), MgCl2 1M (10 mL). Kynurenic acid and penicillin/streptomycin were added to the solution just before cutting to control cellular electrical activity and avoid contamination during slices preparation respectively. Only dorsal hippocampal slices were collected and placed on 20 mm latex membranes (Millicell, Millipore) inserted into 35 mm Petri dishes containing 1 mL of culture medium and maintained in an incubator at 34° C., 95% 02-5% CO2. The culture medium contained 25 mL MEM, 1.25 mL HBSS, 12.5 mL horse serum, 0.5 mL penicillin/streptomycin, 0.8 mL glucose (1 M), 0.1 mL ascorbic acid (1 mg/mL), 0.4 mL Hepes (1 M), 0.5 mL B27, and 8.95 mL sterile H2O. At least 1 h before collecting the slices, PAs control, OC-PA KCl or OC-PA NaCl were painted on the external surface of the latex membranes by dragging a pipette (50 μL of annealed PAs control or OC-PAs) to extrude a thin coat of material and let organotypic slice cultures grow on it. The culture medium was changed regularly (every 3 days). Organotypic hippocampal slice cultures were used at 6, 10 and 14 DIV to perform electrophysiological recordings and at 10 DIV to perform immunostainings.
To perform electrophysiological recordings, the Millicell membrane containing the slices treated with PAs or OC-PAs was cut with a scalpel and transferred to a recording chamber perfused with oxygenated artificial cerebrospinal fluid (aCSF). This solution was maintained at 31° C. and contained: 125 mM NaCl, 26 mM NaHCO3, 3 mM CaCl2, 2.5 mM KCl, 2 mM MgCl2, 0.8 mM NaH2PO4, 10 mM D-glucose. It was finally equilibrated with 95% O2-5% CO2. Neurons were visualized under an upright microscope (Olympus BX50WI) in phase contrast by infrared video-microscopy using a 60× immersion objective. Whole-cell patch-clamp recordings were obtained from CA1 pyramidal neurons in dorsal hippocampal organotypic cultures at DIV6,10 and 14. Patch-clamp pipettes (7-9 MΩ) were filled with a solution containing (mM): K-gluconate 120, KCl 20, HEPES 10, EGTA 0, MgCl2 2, Na2ATP 2, and NaGTP 0.3 (pH 7.4). CA1 pyramidal neurons were recorded in whole cell current clamp with a MultiClamp 700B amplifier (Axon Instruments), digitalized at 20 kHz with Digidata 1440A (Molecular Devices), low pass filtered at 10 kHz, and acquired with Clampex software (Molecular Devices). For current-clamp recordings, pipette capacitance was compensated, and the bridge was balanced. […]

For CCn1cc[n+](C)c1.[Cl-] [OC, 1-ethyl-3-methyl imidazolium chloride], the “diffusion constant D” value (PA nanostructures; 160.0 mM EMIMCl in PBS pH 7.4, free organic cation) was “(1.179±0.002)·10^−9 m^2s^−1”, the “diffusion constant D” value (PA nanostructures; 160.0 mM EMIMCl in PBS pH 7.4 in the presence of 10.0 mM PA) was “(2.900±0.023)·10^−10 m^2s^−1” and the “diffusion constant Db (slow diffusing)” value (PA nanostructures; HRMAS DOSY, pelleted OC-PA) was “(3.326±0.004)·10^−12 m^2s^−1”. The “diffusion constant Df (fast diffusing)” value (PA nanostructures; HRMAS DOSY, pelleted OC-PA) was “(1.630±0.001)·10^−10 m^2s^−1”.

In the case of “C16-VVAAEE (Palmitoyl-VVAAEE-NH2) [peptide amphiphile monomer, C16=palmitoyl, assembles into one-dimensional nanostructures]”, the “Rb^+ concentration near headgroups over bulk Rb^+ concentration” value ([1]; 1 mM PA in 66 mM RbCl) is reported as ~ 40 ×, the “degree of ionization a” value ([1]; 1 mM PA in 66 mM RbCl) is reported as 0.5 and the “fraction charged (simulated intensities fitted to ASAXS)” value ([1]; Rb^+ counterions) is reported as 50%. For the same molecule, the “rheobase, representative traces” value (CA1 pyramidal neurons; 6 DIV) was 90 pA and 80 pA, the “rheobase, representative traces” value (CA1 pyramidal neurons; 10 DIV) was 140 pA and 130 pA and the “rheobase, representative traces” value (CA1 pyramidal neurons; 14 DIV) was 130 pA. The Rheobase (CA1 pyramidal neurons; 6 days in vitro) was 95.7 ± 5.6 and 86 ± 4.7, the “Spikes evoked at 240 pA” value (CA1 pyramidal neurons; 6 days in vitro) was 16.4 ± 1.1 and 16.2 ± 0.9 and the Rheobase (CA1 pyramidal neurons; 10 days in vitro) was 109.3 ± 4.8 and 121.8 ± 7.7. For the same molecule, the “Spikes evoked at 240 pA” value (CA1 pyramidal neurons; 10 days in vitro) was 13.2 ± 0.7 and 12.8 ± 0.9, the Rheobase (CA1 pyramidal neurons; 14 days in vitro) was 127 ± 4.4 and 131 ± 5.4 and the “Spikes evoked at 240 pA” value (CA1 pyramidal neurons; 14 days in vitro) was 11.1 ± 0.5 and 10.3 ± 0.9.
